From patent US20050197350A1, “Novel quinoline, tetrahydroquinazoline, and pyrimidine derivatives and methods of treatment related to the use thereof” (TAISHO PHARMACEUTICAL CO., LTD., priority 2003, published 2005)

system: MCH receptors; assay: MCH receptor activity class (method not given); conditions: class by percent of control at 10^-7 M or IC50

Structure (SMILES) | class
COc1cccc(CC(=O)N[C@H]2CC[C@@H](Nc3nccc(N(C)C)n3)CC2)c1 [compound 285] | 3 (Class 3 The value of percent of control at 10^−7 M was more than 60% or the value of IC50 was more than 200 nM.)
CN(C)c1ccnc(N[C@H]2CC[C@@H](NC(=O)Cc3ccc(F)cc3)CC2)n1 [compound 286] | 3 (Class 3 The value of percent of control at 10^−7 M was more than 60% or the value of IC50 was more than 200 nM.)
COc1ccc(CC(=O)N[C@H]2CC[C@@H](Nc3nccc(N(C)C)n3)CC2)cc1 [compound 287] | 3 (Class 3 The value of percent of control at 10^−7 M was more than 60% or the value of IC50 was more than 200 nM.)
Cc1cc(C(=O)N[C@H]2CC[C@@H](Nc3nccc(N(C)C)n3)CC2)c(C(F)(F)F)o1 [compound 288] | 3 (Class 3 The value of percent of control at 10^−7 M was more than 60% or the value of IC50 was more than 200 nM.)
Cc1cc(C(=O)N[C@H]2CC[C@@H](Nc3nccc(N(C)C)n3)CC2)c(C)o1 [compound 289, N-(cis-4-{[4-(dimethylamino)pyrimidin-2-yl]amino}cyclohexyl)-2,5-dimethyl-3-furamide] | 2 (Class 2: The value of percent of control at 10^−7 M was from 40% to 60% or the value of IC′50 was from 50 nM to 200 nM.)
CCOc1ccccc1C(=O)N[C@H]1CC[C@@H](Nc2nccc(N(C)C)n2)CC1 [compound 290] | 3 (Class 3 The value of percent of control at 10^−7 M was more than 60% or the value of IC50 was more than 200 nM.)
CN(C)c1ccnc(N[C@H]2CC[C@@H](NC(=O)c3ccc(F)c(Cl)c3)CC2)n1 [compound 291, 3-chloro-N-(cis-4-{[4-(dimethylamino)pyrimidin-2-yl]amino}cyclohexyl)-4-fluorobenzamide] | 1 (Class 1: The value of percent of control at 10^−7 M was less than 40% or the value of IC50 was less than 50 nM.)
Cc1ccc(C(=O)N[C@H]2CC[C@@H](Nc3nccc(N(C)C)n3)CC2)cc1F [compound 292] | 3 (Class 3 The value of percent of control at 10^−7 M was more than 60% or the value of IC50 was more than 200 nM.)
CN(C)c1ccnc(N[C@H]2CC[C@@H](NC(=O)CC3CCCC3)CC2)n1 [compound 293] | 3 (Class 3 The value of percent of control at 10^−7 M was more than 60% or the value of IC50 was more than 200 nM.)
COc1cc(OC)cc(C(=O)N[C@H]2CC[C@@H](Nc3nccc(N(C)C)n3)CC2)c1 [compound 294, N-(cis-4-{[4-(dimethylamino)pyrimidin-2-yl]amino}cyclohexyl)-3,5-dimethoxybenzamide] | 1 (Class 1: The value of percent of control at 10^−7 M was less than 40% or the value of IC50 was less than 50 nM.)
CN(C)c1ccnc(N[C@H]2CC[C@@H](NC(=O)c3ccc(C#N)cc3)CC2)n1 [compound 295] | 3 (Class 3 The value of percent of control at 10^−7 M was more than 60% or the value of IC50 was more than 200 nM.)
CN(C)c1ccnc(N[C@H]2CC[C@@H](NC(=O)c3cc(C(F)(F)F)cc(C(F)(F)F)c3)CC2)n1 [compound 296, N-(cis-4-{[4-(dimethylamino)pyrimidin-2-yl]amino}cyclohexyl)-3,5-bis(trifluoromethyl)benzamide] | 1 (Class 1: The value of percent of control at 10^−7 M was less than 40% or the value of IC50 was less than 50 nM.)
CN(C)c1ccnc(N[C@H]2CC[C@@H](NC(=O)/C=C/c3ccc([N+](=O)[O-])cc3)CC2)n1 [compound 297] | 3 (Class 3 The value of percent of control at 10^−7 M was more than 60% or the value of IC50 was more than 200 nM.)
CN(C)c1ccnc(N[C@H]2CC[C@@H](NC(=O)Cc3ccccc3Br)CC2)n1 [compound 298] | 3 (Class 3 The value of percent of control at 10^−7 M was more than 60% or the value of IC50 was more than 200 nM.)
Cc1cc(C(=O)N[C@H]2CC[C@@H](Nc3nccc(N(C)C)n3)CC2)ccc1F [compound 299, N-(cis-4-{[4-(dimethylamino)pyrimidin-2-yl]amino}cyclohexyl)-4-fluoro-3-methylbenzamide] | 1 (Class 1: The value of percent of control at 10^−7 M was less than 40% or the value of IC50 was less than 50 nM.)
CN(C)c1ccnc(N[C@H]2CC[C@@H](NC(=O)c3ccccc3SC(F)F)CC2)n1 [compound 300] | 3 (Class 3 The value of percent of control at 10^−7 M was more than 60% or the value of IC50 was more than 200 nM.)
CN(C)c1ccnc(N[C@H]2CC[C@@H](NC(=O)c3cc(Cl)sc3Cl)CC2)n1 [compound 301] | 2 (Class 2: The value of percent of control at 10^−7 M was from 40% to 60% or the value of IC′50 was from 50 nM to 200 nM.)
CCCSc1ncccc1C(=O)N[C@H]1CC[C@@H](Nc2nccc(N(C)C)n2)CC1 [compound 302] | 3 (Class 3 The value of percent of control at 10^−7 M was more than 60% or the value of IC50 was more than 200 nM.)
CN(C)c1ccnc(N[C@H]2CC[C@@H](NC(=O)c3cc(C(C)(C)C)nn3Cc3ccccc3)CC2)n1 [compound 303] | 2 (Class 2: The value of percent of control at 10^−7 M was from 40% to 60% or the value of IC′50 was from 50 nM to 200 nM.)
CN(C)c1ccnc(N[C@H]2CC[C@@H](NC(=O)c3cc(C(C)(C)C)nn3C)CC2)n1 [compound 304] | 3 (Class 3 The value of percent of control at 10^−7 M was more than 60% or the value of IC50 was more than 200 nM.)

Structure (SMILES) | class
C/C(=C\c1ccccc1)C(=O)N[C@H]1CC[C@@H](Nc2nccc(N(C)C)n2)CC1 [compound 305] | 3 (Class 3 The value of percent of control at 10^−7 M was more than 60% or the value of IC50 was more than 200 nM.)
CN(C)c1ccnc(N[C@H]2CC[C@@H](NC(=O)c3cncc(Br)c3)CC2)n1 [compound 306] | 3 (Class 3 The value of percent of control at 10^−7 M was more than 60% or the value of IC50 was more than 200 nM.)
CN(C)c1ccnc(N[C@H]2CC[C@@H](NC(=O)Cc3cccc4ccccc34)CC2)n1 [compound 307, N-(cis-4-{[4-(dimethylamino)pyrimidin-2-yl]amino}cyclohexyl)-2-(1-naphthyl)acetamide] | 2 (Class 2: The value of percent of control at 10^−7 M was from 40% to 60% or the value of IC′50 was from 50 nM to 200 nM.)
Cc1cc(C(=O)N[C@H]2CC[C@@H](Nc3nccc(N(C)C)n3)CC2)nn1C(C)(C)C [compound 308] | 3 (Class 3 The value of percent of control at 10^−7 M was more than 60% or the value of IC50 was more than 200 nM.)
CN(C)c1ccnc(N[C@H]2CC[C@@H](NC(=O)c3csc4ccccc34)CC2)n1 [compound 309] | 3 (Class 3 The value of percent of control at 10^−7 M was more than 60% or the value of IC50 was more than 200 nM.)
CN(C)c1ccnc(N[C@H]2CC[C@@H](NC(=O)c3ccccc3)CC2)n1 [compound 311, N-(cis-4-{[4-(dimethylamino)pyrimidin-2-yl]amino}cyclohexyl)benzamide] | 3 (Class 3 The value of percent of control at 10^−7 M was more than 60% or the value of IC50 was more than 200 nM.)
CN(C)c1ccnc(N[C@H]2CC[C@@H](NC(=O)c3cc4ccccc4s3)CC2)n1 [compound 312] | 3 (Class 3 The value of percent of control at 10^−7 M was more than 60% or the value of IC50 was more than 200 nM.)
CN(C)c1ccnc(N[C@H]2CC[C@@H](NC(=O)COCc3ccccc3)CC2)n1 [compound 313] | 3 (Class 3 The value of percent of control at 10^−7 M was more than 60% or the value of IC50 was more than 200 nM.)
CN(C)c1ccnc(N[C@H]2CC[C@@H](NC(=O)COc3ccc(Cl)cc3)CC2)n1 [compound 314] | 1 (Class 1: The value of percent of control at 10^−7 M was less than 40% or the value of IC50 was less than 50 nM.)
CN(C)c1ccnc(N[C@H]2CC[C@@H](NC(=O)C3CCCCC3)CC2)n1 [compound 315] | 3 (Class 3 The value of percent of control at 10^−7 M was more than 60% or the value of IC50 was more than 200 nM.)
Cc1onc(-c2ccccc2Cl)c1C(=O)N[C@H]1CC[C@@H](Nc2nccc(N(C)C)n2)CC1 [compound 316] | 3 (Class 3 The value of percent of control at 10^−7 M was more than 60% or the value of IC50 was more than 200 nM.)
CN(C)c1ccnc(N[C@H]2CC[C@@H](NC(=O)C3(c4ccc(Cl)cc4)CCCC3)CC2)n1 [compound 317] | 2 (Class 2: The value of percent of control at 10^−7 M was from 40% to 60% or the value of IC′50 was from 50 nM to 200 nM.)
Cc1onc(-c2c(F)cccc2Cl)c1C(=O)N[C@H]1CC[C@@H](Nc2nccc(N(C)C)n2)CC1 [compound 318] | 2 (Class 2: The value of percent of control at 10^−7 M was from 40% to 60% or the value of IC′50 was from 50 nM to 200 nM.)
CC(C)S(=O)(=O)c1csc(C(=O)N[C@H]2CC[C@@H](Nc3nccc(N(C)C)n3)CC2)c1Cl [compound 319] | 3 (Class 3 The value of percent of control at 10^−7 M was more than 60% or the value of IC50 was more than 200 nM.)
CN(C)c1ccnc(N[C@H]2CC[C@@H](NC(=O)c3ccc([N+](=O)[O-])cc3Cl)CC2)n1 [compound 320] | 3 (Class 3 The value of percent of control at 10^−7 M was more than 60% or the value of IC50 was more than 200 nM.)
Cc1cc(C(=O)N[C@H]2CC[C@@H](Nc3nccc(N(C)C)n3)CC2)n(C)n1 [compound 321] | 3 (Class 3 The value of percent of control at 10^−7 M was more than 60% or the value of IC50 was more than 200 nM.)
COc1ccc(C(=O)N[C@H]2CC[C@@H](Nc3nccc(N(C)C)n3)CC2)cc1OC [compound 322] | 3 (Class 3 The value of percent of control at 10^−7 M was more than 60% or the value of IC50 was more than 200 nM.)
CN(C)c1ccnc(N[C@H]2CC[C@@H](NC(=O)c3cccc(F)c3)CC2)n1 [compound 323] | 3 (Class 3 The value of percent of control at 10^−7 M was more than 60% or the value of IC50 was more than 200 nM.)
CN(C)c1ccnc(N[C@H]2CC[C@@H](NC(=O)c3ccc(F)c(C(F)(F)F)c3)CC2)n1 [compound 324, N-(cis-4-{[4-(dimethylamino)pyrimidin-2-yl]amino}cyclohexyl)-4-fluoro-3-(trifluoromethyl)benzamide] | 1 (Class 1: The value of percent of control at 10^−7 M was less than 40% or the value of IC50 was less than 50 nM.)
